Measurements: PMC8286840, “Identifying SARS-CoV-2 antiviral compounds by screening for small molecule inhibitors of Nsp3 papain-like protease” (Biochemical Journal, 2021)
Where a name gives a salt, the structure may show the parent alone. Read-outs that look alike come from different tables or passages of the source. Where a SMILES comes first, the peptide text is derived from it.

Legend:
[1] = molecular target: T1, SARS-CoV-2 PLpro (nsp3 1564–1878) (Severe acute respiratory syndrome coronavirus 2, UniProt P0DTD1); experiment: biochemical; parameters: FRET-quenched peptide (Pro3) cleavage by PLpro, 10 min pre-incubation, slope over 20 min, normalised to no-compound control; conditions: low concentration screen, read-out: % of control remaining
[2] = molecular target: T1, SARS-CoV-2 PLpro (nsp3 1564–1878); experiment: biochemical; parameters: FRET-quenched peptide (Pro3) cleavage by PLpro, 10 min pre-incubation, slope over 20 min, normalised to no-compound control; conditions: high concentration screen, read-out: % of control remaining

Cc1oncc1C(=O)Nc1ccc(C(F)(F)F)cc1 [Leflunomide]
remaining activity at 1.25 µM ([1]; Well no.=787): 104% | remaining activity at 1.25 µM ([1]; Well no.=2268): 96.5% | remaining activity at 3.75 µM ([2]; Well no.=787): 105% | remaining activity at 3.75 µM ([2]; Well no.=2268): 104%

Nc1cccc2c1CN(C1CCC(=O)NC1=O)C2=O (stereo not drawn) [Lenalidomide (Revlimid)]
remaining activity at 1.25 µM ([1]; Well no.=4838): 97.7% | remaining activity at 3.75 µM ([2]; Well no.=4838): 97.8%

O=C(O)CSc1nnc(Br)n1-c1ccc(C2CC2)c2ccccc12 [Lesinurad]
remaining activity at 1.25 µM ([1]; Well no.=8158): 102% | remaining activity at 3.75 µM ([2]; Well no.=8158): 104%

N#Cc1ccc(C(c2ccc(C#N)cc2)n2cncn2)cc1 [Letrozole]
remaining activity at 1.25 µM ([1]; Well no.=1822): 97.8% | remaining activity at 3.75 µM ([2]; Well no.=1822): 98.2%

CC1=CC(=O)C2=C(C)CC[C@@H]3[C@H](OC(=O)[C@H]3C)[C@@H]12 [Leucomisine]
remaining activity at 1.25 µM ([1]; Well no.=3248): 94.5% | remaining activity at 3.75 µM ([2]; Well no.=3248): 96.8%

Nc1nc(=O)c2c([nH]1)NCC(CNc1ccc(C(=O)N[C@@H](CCC(=O)O)C(=O)O)cc1)N2C=O (stereo partly drawn) [Leucovorin Calcium]
remaining activity at 1.25 µM ([1]; Well no.=4757): 103% | remaining activity at 3.75 µM ([2]; Well no.=4757): 107%

CC(C)C[C@H](N)C(=O)N[C@@H](Cc1ccccc1)C(=O)O [Leucyl-phenylalanine] (H-Leu-Phe-OH)
remaining activity at 1.25 µM ([1]; Well no.=6291): 104% | remaining activity at 1.25 µM ([1]; Well no.=8754): 87.2% | remaining activity at 3.75 µM ([2]; Well no.=6291): 102% | remaining activity at 3.75 µM ([2]; Well no.=8754): 87.4%

CCCCCCCC[C@H](O)/C=C/C=C\C=C\[C@H](O)CCCC(=O)O [Leukotriene B3]
remaining activity at 1.25 µM ([1]; Well no.=4421): 102% | remaining activity at 3.75 µM ([2]; Well no.=4421): 101%

CCCCC/C=C\C[C@@H](O)/C=C/C=C/C=C\[C@@H](O)CCCC(=O)O [Leukotriene B4]
remaining activity at 1.25 µM ([1]; Well no.=4423): 101% | remaining activity at 3.75 µM ([2]; Well no.=4423): 97.4%

CCCCC/C=C\C\C=C/C=C/C=C/[C@@H](SC[C@H](NC(=O)CC[C@H](N)C(=O)O)C(=O)NCC(=O)O)[C@@H](O)CCCC(=O)O [Leukotriene C4]
remaining activity at 1.25 µM ([1]; Well no.=4429): 102% | remaining activity at 3.75 µM ([2]; Well no.=4429): 101%

CCCCC/C=C\C\C=C/C=C/C=C/[C@@H](SC[C@H](N)C(=O)NCC(=O)O)[C@@H](O)CCCC(=O)O [Leukotriene D4]
remaining activity at 1.25 µM ([1]; Well no.=4431): 100% | remaining activity at 3.75 µM ([2]; Well no.=4431): 98.6%

CCCCC/C=C\C\C=C/C=C/C=C/[C@@H](SC[C@H](N)C(=O)O)[C@@H](O)CCCC(=O)O [Leukotriene E4]
remaining activity at 1.25 µM ([1]; Well no.=4433): 99.2% | remaining activity at 3.75 µM ([2]; Well no.=4433): 99.5%

CC(=O)N[C@@H](CC(C)C)C(=O)N[C@@H](CC(C)C)C(=O)N[C@H](C=O)CCCN=C(N)N [Leupeptin Hemisulfate]
remaining activity at 1.25 µM ([1]; Well no.=8716): 92% | remaining activity at 3.75 µM ([2]; Well no.=8716): 91%

CCNC(=O)[C@@H]1CCCN1C(=O)[C@H](CCCNC(=N)N)NC(=O)[C@H](CC(C)C)NC(=O)[C@@H](CC(C)C)NC(=O)[C@H](Cc1ccc(O)cc1)NC(=O)[C@H](CO)NC(=O)[C@H](Cc1c[nH]c2ccccc12)NC(=O)[C@H](Cc1c[nH]cn1)NC(=O)[C@@H]1CCC(=O)N1 [Leuprolide (Acetate)]
remaining activity at 1.25 µM ([1]; Well no.=6469): 104% | remaining activity at 3.75 µM ([2]; Well no.=6469): 104%

C=CCN1CC[C@]23CCCC[C@H]2[C@H]1Cc1ccc(O)cc13 [Levallorphan tartrate]
remaining activity at 1.25 µM ([1]; Well no.=1012): 99.1% | remaining activity at 3.75 µM ([2]; Well no.=1012): 99.9%

C=CCN1CC[C@]23CCCC[C@H]2[C@H]1Cc1ccc(O)cc13 [Levallorphan]
remaining activity at 1.25 µM ([1]; Well no.=1702): 106% | remaining activity at 3.75 µM ([2]; Well no.=1702): 103%

c1ccc([C@H]2CN3CCSC3=N2)cc1 [Levamisole]
remaining activity at 1.25 µM ([1]; Well no.=2260): 97.8% | remaining activity at 3.75 µM ([2]; Well no.=2260): 94.2%

CC[C@@H](C(N)=O)N1CCCC1=O [Levetiracetam]
remaining activity at 1.25 µM ([1]; Well no.=1820): 96.8% | remaining activity at 3.75 µM ([2]; Well no.=1820): 94.4%

CC(C)NC[C@H](O)COc1ccc(CCOCC2CC2)cc1 [Levobetaxolol (hydrochloride)]
remaining activity at 1.25 µM ([1]; Well no.=6429): 91.4% | remaining activity at 3.75 µM ([2]; Well no.=6429): 90.9%

CCCCN1CCCC[C@H]1C(=O)Nc1c(C)cccc1C [Levobupivacaine hydrochloride]
remaining activity at 1.25 µM ([1]; Well no.=6043): 98.8% | remaining activity at 3.75 µM ([2]; Well no.=6043): 105%

C[C@@H]1CN([C@H]2CC[C@](C#N)(c3ccc(F)cc3)CC2)CC[C@]1(C(=O)O)c1ccccc1 [Levocabastine.HCl]
remaining activity at 1.25 µM ([1]; Well no.=2058): 97.6% | remaining activity at 3.75 µM ([2]; Well no.=2058): 99.2%

N[C@@H](Cc1ccc(O)c(O)c1)C(=O)O [Levodopa]
remaining activity at 1.25 µM ([1]; Well no.=2264): 93.8% | remaining activity at 3.75 µM ([2]; Well no.=2264): 95.2%

OC[C@@H](O)CN1CCN(c2ccccc2)CC1 [Levodropropizine]
remaining activity at 1.25 µM ([1]; Well no.=6189): 97.3% | remaining activity at 3.75 µM ([2]; Well no.=6189): 82.2%

C[C@H]1COc2c(N3CCN(C)CC3)c(F)cc3c(=O)c(C(=O)O)cn1c23 [Levofloxacin]
remaining activity at 1.25 µM ([1]; Well no.=2266): 97.9% | remaining activity at 3.75 µM ([2]; Well no.=2266): 98.5%

CN1c2c([nH]c(N)nc2=O)NC[C@@H]1CNc1ccc(C(=O)N[C@@H](CCC(=O)O)C(=O)O)cc1 [Levomefolic acid]
remaining activity at 1.25 µM ([1]; Well no.=7940): 101% | remaining activity at 3.75 µM ([2]; Well no.=7940): 101%

C#C[C@]1(O)CC[C@H]2[C@@H]3CCC4=CC(=O)CC[C@@H]4[C@H]3CC[C@@]21CC [Levonorgestrel]
remaining activity at 1.25 µM ([1]; Well no.=2262): 93.9% | remaining activity at 3.75 µM ([2]; Well no.=2262): 102%

C[C@@H]1CC(=O)NN=C1c1ccc(NN=C(C#N)C#N)cc1 [Levosimendan]
remaining activity at 1.25 µM ([1]; Well no.=4902): 101% | remaining activity at 3.75 µM ([2]; Well no.=4902): 97.8%

CCN1CCC[C@H]1CNC(=O)c1cc(S(N)(=O)=O)ccc1OC [Levosulpiride]
remaining activity at 1.25 µM ([1]; Well no.=6851): 98% | remaining activity at 3.75 µM ([2]; Well no.=6851): 88.1%

CC(=O)CCC(=O)O [Levulinic acid]
remaining activity at 1.25 µM ([1]; Well no.=6545): 101% | remaining activity at 3.75 µM ([2]; Well no.=6545): 98%

CCN(CC)CC(=O)Nc1c(C)cccc1C [Lidocaine hydrochloride]
remaining activity at 1.25 µM ([1]; Well no.=883): 104% | remaining activity at 3.75 µM ([2]; Well no.=883): 108%

OCc1ccc(-c2nn(Cc3ccccc3)c3ccccc23)o1 [Lificiguat]
remaining activity at 1.25 µM ([1]; Well no.=7713): 99% | remaining activity at 3.75 µM ([2]; Well no.=7713): 82.8%

CS(=O)(=O)c1cccc(C[C@H](NC(=O)c2c(Cl)cc3c(c2Cl)CCN(C(=O)c2ccc4ccoc4c2)C3)C(=O)O)c1 [Lifitegrast]
remaining activity at 1.25 µM ([1]; Well no.=8038): 94.5% | remaining activity at 3.75 µM ([2]; Well no.=8038): 95.3%

CC1(C)O[C@H]2CC(=O)OC[C@]23[C@H]2CC[C@@]4(C)[C@H](c5ccoc5)OC(=O)[C@H]5O[C@]54[C@]2(C)C(=O)C[C@@H]13 [Limonin]
remaining activity at 1.25 µM ([1]; Well no.=3655): 99.2% | remaining activity at 3.75 µM ([2]; Well no.=3655): 102%

CC#CCn1c(N2CCC[C@@H](N)C2)nc2c1c(=O)n(Cc1nc(C)c3ccccc3n1)c(=O)n2C [Linagliptin (BI-1356)]
remaining activity at 1.25 µM ([1]; Well no.=4883): 97% | remaining activity at 3.75 µM ([2]; Well no.=4883): 93.9%
